Measurements from PubChem BioAssay AID2060503 (Molecular Pharmacology Branch, DTP, NCI, 2025).
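Note: spheroids exposed to agents for 7 days before readout; percent viability relative to DMSO vehicle control taken as 100%.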

The compounds below were run on 817829-284-R-J1-PDC complex spheroids, viability (assay: Anticancer human tumor 817829-284-R-J1-PDC patient-derived colon adenocarcinoma cell line growth inhibition [GQUAD]). Conditions: second compound 0.0316 µM; first compound 3.16 µM; hits give low values.
Summary of the method: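 Viability of tumor cells grown as complex spheroids with endothelial and stromal cells, exposed to drug combinations. Top concentration at or near clinical Cmax (else 10 microM), diluted in half-log increments.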
`CC(C)n1c(=O)n(C)c2cnc3cc(F)c(-c4ccc(OCCCN5CCCCC5)nc4)cc3c21` + Cc1[nH]c2ccc(F)cc2c1-c1nc2c3cccnc3c3ncccc3c2[nH]1 gave a viability, T/C of 104%.
`COc1cc(C2c3cc4c(cc3C(OC3OC5COC(C)OC5C(O)C3O)C3COC(=O)C23)OCO4)cc(OC)c1O` (configuration not stated) + Cc1[nH]c2ccc(F)cc2c1-c1nc2c3cccnc3c3ncccc3c2[nH]1 showed a viability, T/C of 28.1%.
`COc1cccc2c1C(=O)c1c(O)c3c(c(O)c1C2=O)CC(O)(C(=O)CO)CC3OC1CC(N)C(O)C(C)O1` (configuration not stated) + Cc1[nH]c2ccc(F)cc2c1-c1nc2c3cccnc3c3ncccc3c2[nH]1 showed a viability, T/C of 0.98%.
In the case of `Cc1cccc(N(C)C(=O)C2C(O)CCN2c2nc(C)cc(C(F)(F)F)c2C#N)c1` (configuration not stated) + Cc1[nH]c2ccc(F)cc2c1-c1nc2c3cccnc3c3ncccc3c2[nH]1, the viability, T/C is reported as 97.6%.
With `O=C(c1cc(Cc2n[nH]c(=O)c3ccccc23)ccc1F)N1CCN(C(=O)C2CC2)CC1` + Cc1[nH]c2ccc(F)cc2c1-c1nc2c3cccnc3c3ncccc3c2[nH]1 the viability, T/C was 97.2%.

Same assay, conditions: second compound 0.0316 µM; first compound 10 µM; hits give low values
`C=CC(=O)N1CCN(c2nc(=O)n(-c3c(C)ccnc3C(C)C)c3nc(-c4c(O)cccc4F)c(F)cc23)C(C)C1` (configuration not stated) + Cc1[nH]c2ccc(F)cc2c1-c1nc2c3cccnc3c3ncccc3c2[nH]1 was tested, and the viability, T/C was 97.5%.
In the case of `CC(C)n1c(=O)n(C)c2cnc3cc(F)c(-c4ccc(OCCCN5CCCCC5)nc4)cc3c21` + Cc1[nH]c2ccc(F)cc2c1-c1nc2c3cccnc3c3ncccc3c2[nH]1, the viability, T/C is reported as 94.9%.
With `COc1cc(C2c3cc4c(cc3C(OC3OC5COC(C)OC5C(O)C3O)C3COC(=O)C23)OCO4)cc(OC)c1O` (configuration not stated) + Cc1[nH]c2ccc(F)cc2c1-c1nc2c3cccnc3c3ncccc3c2[nH]1 the viability, T/C was 10.6%.
`COc1cccc2c1C(=O)c1c(O)c3c(c(O)c1C2=O)CC(O)(C(=O)CO)CC3OC1CC(N)C(O)C(C)O1` (configuration not stated) + Cc1[nH]c2ccc(F)cc2c1-c1nc2c3cccnc3c3ncccc3c2[nH]1 was tested, and the viability, T/C was 0.2%.
`Cc1cccc(N(C)C(=O)C2C(O)CCN2c2nc(C)cc(C(F)(F)F)c2C#N)c1` (configuration not stated) + Cc1[nH]c2ccc(F)cc2c1-c1nc2c3cccnc3c3ncccc3c2[nH]1 gave a viability, T/C of 95.3%.
In the case of `O=C(c1cc(Cc2n[nH]c(=O)c3ccccc23)ccc1F)N1CCN(C(=O)C2CC2)CC1` + Cc1[nH]c2ccc(F)cc2c1-c1nc2c3cccnc3c3ncccc3c2[nH]1, the viability, T/C is reported as 63.3%.

Same assay, conditions: second compound 0.1 µM; first compound 0.000999 µM; hits give low values
Compound `CCc1c2c(nc3ccc(O)cc13)-c1cc3c(c(=O)n1C2)COC(=O)[C@]3(O)CC` + Cc1[nH]c2ccc(F)cc2c1-c1nc2c3cccnc3c3ncccc3c2[nH]1 has a viability, T/C of 51.3%.

Same assay, conditions: second compound 0.1 µM; first compound 0.00316 µM; hits give low values
With `CCc1c2c(nc3ccc(O)cc13)-c1cc3c(c(=O)n1C2)COC(=O)[C@]3(O)CC` + Cc1[nH]c2ccc(F)cc2c1-c1nc2c3cccnc3c3ncccc3c2[nH]1 the viability, T/C was 33.6%.

Same assay, conditions: second compound 0.1 µM; first compound 0.00999 µM; hits give low values
With `CCc1c2c(nc3ccc(O)cc13)-c1cc3c(c(=O)n1C2)COC(=O)[C@]3(O)CC` + Cc1[nH]c2ccc(F)cc2c1-c1nc2c3cccnc3c3ncccc3c2[nH]1 the viability, T/C was 27.8%.

Same assay, conditions: second compound 0.1 µM; first compound 0.0316 µM; hits give low values
`C=CC(=O)N1CCN(c2nc(=O)n(-c3c(C)ccnc3C(C)C)c3nc(-c4c(O)cccc4F)c(F)cc23)C(C)C1` (configuration not stated) + Cc1[nH]c2ccc(F)cc2c1-c1nc2c3cccnc3c3ncccc3c2[nH]1 gave a viability, T/C of 87.2%.
Work on `CC(C)n1c(=O)n(C)c2cnc3cc(F)c(-c4ccc(OCCCN5CCCCC5)nc4)cc3c21` + Cc1[nH]c2ccc(F)cc2c1-c1nc2c3cccnc3c3ncccc3c2[nH]1 yielded a viability, T/C of 90.8%.
In the case of `CCc1c2c(nc3ccc(O)cc13)-c1cc3c(c(=O)n1C2)COC(=O)[C@]3(O)CC` + Cc1[nH]c2ccc(F)cc2c1-c1nc2c3cccnc3c3ncccc3c2[nH]1, the viability, T/C is reported as 14.9%.
`COc1cc(C2c3cc4c(cc3C(OC3OC5COC(C)OC5C(O)C3O)C3COC(=O)C23)OCO4)cc(OC)c1O` (configuration not stated) + Cc1[nH]c2ccc(F)cc2c1-c1nc2c3cccnc3c3ncccc3c2[nH]1 gave a viability, T/C of 95.3%.
In the case of `COc1cccc2c1C(=O)c1c(O)c3c(c(O)c1C2=O)CC(O)(C(=O)CO)CC3OC1CC(N)C(O)C(C)O1` (configuration not stated) + Cc1[nH]c2ccc(F)cc2c1-c1nc2c3cccnc3c3ncccc3c2[nH]1, the viability, T/C is reported as 79.8%.
For `Cc1cccc(N(C)C(=O)C2C(O)CCN2c2nc(C)cc(C(F)(F)F)c2C#N)c1` (configuration not stated) + Cc1[nH]c2ccc(F)cc2c1-c1nc2c3cccnc3c3ncccc3c2[nH]1, the viability, T/C was 78.9%.
`O=C(c1cc(Cc2n[nH]c(=O)c3ccccc23)ccc1F)N1CCN(C(=O)C2CC2)CC1` + Cc1[nH]c2ccc(F)cc2c1-c1nc2c3cccnc3c3ncccc3c2[nH]1 was tested, and the viability, T/C was 94%.

Same assay, conditions: second compound 0.1 µM; first compound 0.0999 µM; hits give low values
For `CCc1c2c(nc3ccc(O)cc13)-c1cc3c(c(=O)n1C2)COC(=O)[C@]3(O)CC` + Cc1[nH]c2ccc(F)cc2c1-c1nc2c3cccnc3c3ncccc3c2[nH]1, the viability, T/C was 9.56%.

Same assay, conditions: second compound 0.1 µM; first compound 0.1 µM; hits give low values
`C=CC(=O)N1CCN(c2nc(=O)n(-c3c(C)ccnc3C(C)C)c3nc(-c4c(O)cccc4F)c(F)cc23)C(C)C1` (configuration not stated) + Cc1[nH]c2ccc(F)cc2c1-c1nc2c3cccnc3c3ncccc3c2[nH]1 gave a viability, T/C of 90.1%.
In the case of `CC(C)n1c(=O)n(C)c2cnc3cc(F)c(-c4ccc(OCCCN5CCCCC5)nc4)cc3c21` + Cc1[nH]c2ccc(F)cc2c1-c1nc2c3cccnc3c3ncccc3c2[nH]1, the viability, T/C is reported as 106%.
Work on `COc1cc(C2c3cc4c(cc3C(OC3OC5COC(C)OC5C(O)C3O)C3COC(=O)C23)OCO4)cc(OC)c1O` (configuration not stated) + Cc1[nH]c2ccc(F)cc2c1-c1nc2c3cccnc3c3ncccc3c2[nH]1 yielded a viability, T/C of 91.2%.
In the case of `COc1cccc2c1C(=O)c1c(O)c3c(c(O)c1C2=O)CC(O)(C(=O)CO)CC3OC1CC(N)C(O)C(C)O1` (configuration not stated) + Cc1[nH]c2ccc(F)cc2c1-c1nc2c3cccnc3c3ncccc3c2[nH]1, the viability, T/C is reported as 46.1%.
`Cc1cccc(N(C)C(=O)C2C(O)CCN2c2nc(C)cc(C(F)(F)F)c2C#N)c1` (configuration not stated) + Cc1[nH]c2ccc(F)cc2c1-c1nc2c3cccnc3c3ncccc3c2[nH]1 was tested, and the viability, T/C was 97.7%.
With `O=C(c1cc(Cc2n[nH]c(=O)c3ccccc23)ccc1F)N1CCN(C(=O)C2CC2)CC1` + Cc1[nH]c2ccc(F)cc2c1-c1nc2c3cccnc3c3ncccc3c2[nH]1 the viability, T/C was 109%.

Same assay, conditions: second compound 0.1 µM; first compound 0.316 µM; hits give low values
`C=CC(=O)N1CCN(c2nc(=O)n(-c3c(C)ccnc3C(C)C)c3nc(-c4c(O)cccc4F)c(F)cc23)C(C)C1` (configuration not stated) + Cc1[nH]c2ccc(F)cc2c1-c1nc2c3cccnc3c3ncccc3c2[nH]1 was tested, and the viability, T/C was 88.5%.
For `CC(C)n1c(=O)n(C)c2cnc3cc(F)c(-c4ccc(OCCCN5CCCCC5)nc4)cc3c21` + Cc1[nH]c2ccc(F)cc2c1-c1nc2c3cccnc3c3ncccc3c2[nH]1, the viability, T/C was 95.8%.
Work on `CCc1c2c(nc3ccc(O)cc13)-c1cc3c(c(=O)n1C2)COC(=O)[C@]3(O)CC` + Cc1[nH]c2ccc(F)cc2c1-c1nc2c3cccnc3c3ncccc3c2[nH]1 yielded a viability, T/C of 4.38%.
`COc1cc(C2c3cc4c(cc3C(OC3OC5COC(C)OC5C(O)C3O)C3COC(=O)C23)OCO4)cc(OC)c1O` (configuration not stated) + Cc1[nH]c2ccc(F)cc2c1-c1nc2c3cccnc3c3ncccc3c2[nH]1 was tested, and the viability, T/C was 29.5%.
Work on `COc1cccc2c1C(=O)c1c(O)c3c(c(O)c1C2=O)CC(O)(C(=O)CO)CC3OC1CC(N)C(O)C(C)O1` (configuration not stated) + Cc1[nH]c2ccc(F)cc2c1-c1nc2c3cccnc3c3ncccc3c2[nH]1 yielded a viability, T/C of 29.7%.
For `Cc1cccc(N(C)C(=O)C2C(O)CCN2c2nc(C)cc(C(F)(F)F)c2C#N)c1` (configuration not stated) + Cc1[nH]c2ccc(F)cc2c1-c1nc2c3cccnc3c3ncccc3c2[nH]1, the viability, T/C was 89.7%.
With `O=C(c1cc(Cc2n[nH]c(=O)c3ccccc23)ccc1F)N1CCN(C(=O)C2CC2)CC1` + Cc1[nH]c2ccc(F)cc2c1-c1nc2c3cccnc3c3ncccc3c2[nH]1 the viability, T/C was 88.3%.

Same assay, conditions: second compound 0.1 µM; first compound 1 µM; hits give low values
`C=CC(=O)N1CCN(c2nc(=O)n(-c3c(C)ccnc3C(C)C)c3nc(-c4c(O)cccc4F)c(F)cc23)C(C)C1` (configuration not stated) + Cc1[nH]c2ccc(F)cc2c1-c1nc2c3cccnc3c3ncccc3c2[nH]1 gave a viability, T/C of 91.2%.
For `CC(C)n1c(=O)n(C)c2cnc3cc(F)c(-c4ccc(OCCCN5CCCCC5)nc4)cc3c21` + Cc1[nH]c2ccc(F)cc2c1-c1nc2c3cccnc3c3ncccc3c2[nH]1, the viability, T/C was 107%.
